In patent US20240115654A1, “INTRAVENOUS ADMINISTRATION OF ENGINEERED ANTIMICROBIAL AMPHIPHILIC PEPTIDES” (priority 2021, published 2024):
Where two headings read alike, the source gives them in different places. Peptide text beside a SMILES is read from it.

Experiments:
clinical = conditions: human, plasma, iv, Plasma Concentration by Nominal Time from Start of Infusion; for level at 0.5 h: 0.50 h
[1] = IV infusion 1 mg/kg, Group 1, mean of rats
[2] = IV infusion 5 mg/kg, Group 2, mean of rats
[3] = IV infusion 10 mg/kg, Group 4, mean of rats
[4] = 0.05 mg/kg, Cohort 1, 0.05 mg/kg IV 1-hr infusion, individual subject
[5] = 0.05 mg/kg, Cohort 1, 0.05 mg/kg IV 1 hr infusion, individual subjects
[6] = 0.05 mg/kg, Mean, Cohort 1, 0.05 mg/kg IV 1-hr infusion, cohort mean
[7] = 0.05 mg/kg, Mean, Cohort 1, 0.05 mg/kg IV 1 hr infusion, cohort mean N 6
[8] = 0.5 mg/kg, Mean, Cohort 4, 0.5 mg/kg IV 2-hr infusion, cohort mean
[9] = 0.5 mg/kg, Mean, Cohort 4, 0.5 mg/kg IV, infusion 2 hours, cohort mean N 6
[10] = 1 mg/kg, Mean, Cohort 5, 1 mg/kg IV 4-hr infusion, cohort mean

For `CC(C)[C@H](NC(=O)[C@H](Cc1c[nH]c2ccccc12)NC(=O)[C@H](CCCNC(=N)N)NC(=O)[C@H](CCCNC(=N)N)NC(=O)[C@@H](NC(=O)[C@@H](NC(=O)[C@H](CCCNC(=N)N)NC(=O)[C@@H](NC(=O)[C@@H](NC(=O)[C@H](CCCNC(=N)N)NC(=O)[C@H](CCCNC(=N)N)NC(=O)[C@H](Cc1c[nH]c2ccccc12)NC(=O)[C@@H](NC(=O)[C@H](CCCNC(=N)N)NC(=O)[C@H](CCCNC(=N)N)NC(=O)[C@@H](NC(=O)[C@H](CCCNC(=N)N)NC(=O)[C@H](CCCNC(=N)N)NC(=O)[C@@H](NC(=O)[C@H](Cc1c[nH]c2ccccc12)NC(=O)[C@H](CCCNC(=N)N)NC(=O)[C@@H](N)CCCNC(=N)N)C(C)C)C(C)C)C(C)C)C(C)C)C(C)C)C(C)C)C(C)C)C(=O)N[C@@H](CCCNC(=N)N)C(=O)N[C@@H](CCCNC(=N)N)C(N)=O` [SEQ ID NO: 1] (H-RRWVRRVRRVWRRVVRVVRRWVRR-NH2), the AUCinf_D [1] was 787 kg·ng·h/mL/ng, the CL [1] was 21.87 mL/min/kg and the Extrapolated [1] was 3.28%. For the same compound, the Vss [1] was 3.401 L/kg, the Vz [1] was 10.884 L/kg and the AUCinf_D [2] was 5158 kg·ng·h/mL/ng. The Extrapolated [2] was 0.424%, the Vss [2] was 0.229 L/kg and the Vz [2] was 1.533 L/kg. For the same compound, the AUCinf_D [3] was 8049 kg·ng·h/mL/ng, the CL [3] was 2.12 mL/min/kg and the Extrapolated [3] was 0.186%. The Vz [3] was 0.749 L/kg, the level at 0 h (clinical; [4]) was 6.03 ng/mL and the level at 0.5 h (clinical; [4]) was 166 ng/mL. The level at 21 h (clinical; [4]) was 12.6 ng/mL, the level at 37 h (clinical; [4]) was 6.59 ng/mL and the level at 0 h (clinical; [5]) was 6.03 ng/mL. It also gave a level at 0.5 h (clinical; [5]) of 166 ng/mL, a level at 21 h (clinical; [5]) of 12.6 ng/mL and a level at 37 h (clinical; [5]) of 6.59 ng/mL. It also gave a level at 0 h (clinical; [6]) of 1.01 ng/mL, a level at 0.5 h (clinical; [6]) of 189 ng/mL and a level at 1 h (clinical; [6]) of 256 ng/mL. It also gave a level at 2 h (clinical; [6]) of 108 ng/mL, a level at 3 h (clinical; [6]) of 96.4 ng/mL and a level at 5 h (clinical; [6]) of 79.5 ng/mL. For the same compound, the level at 7 h (clinical; [6]) was 62.5 ng/mL, the level at 9 h (clinical; [6]) was 56.9 ng/mL and the level at 13 h (clinical; [6]) was 31.5 ng/mL. For the same compound, the level at 21 h (clinical; [6]) was 15.4 ng/mL, the level at 25 h (clinical; [6]) was 14.8 ng/mL and the level at 37 h (clinical; [6]) was 1.1 ng/mL. For the same compound, the level at […] (clinical; [6]) was 134 ng/mL, the level at 0 h (clinical; [7]) was 1.01 ng/mL and the level at 0.5 h (clinical; [7]) was 189 ng/mL. It also gave a level at 1 h (clinical; [7]) of 256 ng/mL, a level at 2 h (clinical; [7]) of 108 ng/mL and a level at 3 h (clinical; [7]) of 96.4 ng/mL. The level at 5 h (clinical; [7]) was 79.5 ng/mL, the level at 7 h (clinical; [7]) was 62.5 ng/mL and the level at 9 h (clinical; [7]) was 56.9 ng/mL. It also gave a level at 13 h (clinical; [7]) of 31.5 ng/mL, a level at 21 h (clinical; [7]) of 15.4 ng/mL and a level at 25 h (clinical; [7]) of 14.8 ng/mL. The level at 37 h (clinical; [7]) was 1.1 ng/mL, the level at […] (clinical; [7]) was 134 ng/mL and the level at 50 h (clinical; 0.5 mg/kg, Cohort 4, 0.5 mg/kg IV 2-hr infusion, individual subject) was 45.9 ng/mL. For the same compound, the level at 1 h (clinical; [8]) was 1210 ng/mL, the level at 2 h (clinical; [8]) was 1830 ng/mL and the level at 3 h (clinical; [8]) was 616 ng/mL. The level at 4 h (clinical; [8]) was 451 ng/mL, the level at 6 h (clinical; [8]) was 330 ng/mL and the level at 8 h (clinical; [8]) was 249 ng/mL. The level at 10 h (clinical; [8]) was 219 ng/mL, the level at 14 h (clinical; [8]) was 134 ng/mL and the level at 22 h (clinical; [8]) was 76.3 ng/mL. The level at 26 h (clinical; [8]) was 72.5 ng/mL, the level at 38 h (clinical; [8]) was 41.2 ng/mL and the level at 50 h (clinical; [8]) was 25.7 ng/mL. It also gave a level at […] (clinical; [8]) of 877 ng/mL, a level at 1 h (clinical; [9]) of 1210 ng/mL and a level at 2 h (clinical; [9]) of 1830 ng/mL. It also gave a level at 3 h (clinical; [9]) of 616 ng/mL, a level at 4 h (clinical; [9]) of 451 ng/mL and a level at 6 h (clinical; [9]) of 330 ng/mL. For the same compound, the level at 8 h (clinical; [9]) was 249 ng/mL, the level at 10 h (clinical; [9]) was 219 ng/mL and the level at 14 h (clinical; [9]) was 134 ng/mL. For the same compound, the level at 22 h (clinical; [9]) was 76.3 ng/mL, the level at 26 h (clinical; [9]) was 72.5 ng/mL and the level at 38 h (clinical; [9]) was 41.2 ng/mL. The level at 50 h (clinical; [9]) was 25.7 ng/mL, the level at […] (clinical; [9]) was 877 ng/mL and the level at 2 h (clinical; [10]) was 2040 ng/mL. The level at 4 h (clinical; [10]) was 2650 ng/mL, the level at 5 h (clinical; [10]) was 1350 ng/mL and the level at 6 h (clinical; [10]) was 1130 ng/mL. For the same compound, the level at 8 h (clinical; [10]) was 803 ng/mL, the level at 10 h (clinical; [10]) was 604 ng/mL and the level at 12 h (clinical; 1 mg/kg, Mean, Cohort 5, 1 mg/kg IV 4-hr infusion, 12 h, cohort mean) was 487 ng/mL. The level at 16 h (clinical; 1 mg/kg, Mean, Cohort 5, 1 mg/kg IV 4-hr infusion, 16 h, cohort mean) was 287 ng/mL, the level at 24 h (clinical; 1 mg/kg, Mean, Cohort 5, 1 mg/kg IV 4-hr infusion, 24 h, cohort mean) was 167 ng/mL and the level at 28 h (clinical; 1 mg/kg, Mean, Cohort 5, 1 mg/kg IV 4-hr infusion, 28 h, cohort mean) was 180 ng/mL. The level at 40 h (clinical; 1 mg/kg, Mean, Cohort 5, 1 mg/kg IV 4-hr infusion, 40 h, cohort mean) was 98.7 ng/mL, the level at 52 h (clinical; 1 mg/kg, Mean, Cohort 5, 1 mg/kg IV 4-hr infusion, 52 h, cohort mean) was 99.6 ng/mL and the level at […] (clinical; [10]) was 1810 ng/mL.
